Where two headings read alike, the source gives them in different places.
Biological target: T1, F508delCFTR (Homo sapiens, UniProt P13569, DEL508-508)
T1 construct: expressed in transfected cells; host or cells: CFBE41o- human lung-derived epithelial cells (CFBE4lo-F508delCFTR-HRP), doxycycline-inducible
Assay: Cell Surface Expression-Horse Radish Peroxidase (CSE-HRP) Assay;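 as to Maximum % activity (with co-corrector): co-corrector and positive control are both the same reference corrector at 2 µM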;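 as to Maximum % activity (without co-corrector): percent of the 2 µM on-plate positive control corrector response above DMSO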
Format: cell-based
Settings: for Emax / Maximum % activity (with co-corrector): maximum at any tested concentration, normalized to on-plate positive control; for Emax: read-out: Maximum % activity (without co-corrector)

[1] = test compound without co-corrector
[2] = test compound without co-corrector, read-out: EC50 (without co-corrector)
[3] = with co-corrector (2 μM of 3-[(2R,4R)-4-({[1-(2,2-difluoro-1,3-benzodioxol-5-yl)cyclopropyl]carbonyl}amino)-7-methoxy-3,4-dihydro-2H-chromen-2-yl]benzoic acid)
[4] = with co-corrector (2 μM of 3-[(2R,4R)-4-({[1-(2,2-difluoro-1,3-benzodioxol-5-yl)cyclopropyl]carbonyl}amino)-7-methoxy-3,4-dihydro-2H-chromen-2-yl]benzoic acid), read-out: EC50 (with co-corrector)
[5] = CSE-HRP, test compound without co-corrector, read-out: EC50 (without co-corrector)
[6] = CSE-HRP, with co-corrector (2 μM of 3-[(2R,4R)-4-({[1-(2,2-difluoro-1,3-benzodioxol-5-yl)cyclopropyl]carbonyl}amino)-7-methoxy-3,4-dihydro-2H-chromen-2-yl]benzoic acid), read-out: EC50 (with co-corrector)
[7] = CSE-HRP, with co-corrector (2 μM)

T1 sequence (P13569 with tags, fused parts or gaps DEL508-508): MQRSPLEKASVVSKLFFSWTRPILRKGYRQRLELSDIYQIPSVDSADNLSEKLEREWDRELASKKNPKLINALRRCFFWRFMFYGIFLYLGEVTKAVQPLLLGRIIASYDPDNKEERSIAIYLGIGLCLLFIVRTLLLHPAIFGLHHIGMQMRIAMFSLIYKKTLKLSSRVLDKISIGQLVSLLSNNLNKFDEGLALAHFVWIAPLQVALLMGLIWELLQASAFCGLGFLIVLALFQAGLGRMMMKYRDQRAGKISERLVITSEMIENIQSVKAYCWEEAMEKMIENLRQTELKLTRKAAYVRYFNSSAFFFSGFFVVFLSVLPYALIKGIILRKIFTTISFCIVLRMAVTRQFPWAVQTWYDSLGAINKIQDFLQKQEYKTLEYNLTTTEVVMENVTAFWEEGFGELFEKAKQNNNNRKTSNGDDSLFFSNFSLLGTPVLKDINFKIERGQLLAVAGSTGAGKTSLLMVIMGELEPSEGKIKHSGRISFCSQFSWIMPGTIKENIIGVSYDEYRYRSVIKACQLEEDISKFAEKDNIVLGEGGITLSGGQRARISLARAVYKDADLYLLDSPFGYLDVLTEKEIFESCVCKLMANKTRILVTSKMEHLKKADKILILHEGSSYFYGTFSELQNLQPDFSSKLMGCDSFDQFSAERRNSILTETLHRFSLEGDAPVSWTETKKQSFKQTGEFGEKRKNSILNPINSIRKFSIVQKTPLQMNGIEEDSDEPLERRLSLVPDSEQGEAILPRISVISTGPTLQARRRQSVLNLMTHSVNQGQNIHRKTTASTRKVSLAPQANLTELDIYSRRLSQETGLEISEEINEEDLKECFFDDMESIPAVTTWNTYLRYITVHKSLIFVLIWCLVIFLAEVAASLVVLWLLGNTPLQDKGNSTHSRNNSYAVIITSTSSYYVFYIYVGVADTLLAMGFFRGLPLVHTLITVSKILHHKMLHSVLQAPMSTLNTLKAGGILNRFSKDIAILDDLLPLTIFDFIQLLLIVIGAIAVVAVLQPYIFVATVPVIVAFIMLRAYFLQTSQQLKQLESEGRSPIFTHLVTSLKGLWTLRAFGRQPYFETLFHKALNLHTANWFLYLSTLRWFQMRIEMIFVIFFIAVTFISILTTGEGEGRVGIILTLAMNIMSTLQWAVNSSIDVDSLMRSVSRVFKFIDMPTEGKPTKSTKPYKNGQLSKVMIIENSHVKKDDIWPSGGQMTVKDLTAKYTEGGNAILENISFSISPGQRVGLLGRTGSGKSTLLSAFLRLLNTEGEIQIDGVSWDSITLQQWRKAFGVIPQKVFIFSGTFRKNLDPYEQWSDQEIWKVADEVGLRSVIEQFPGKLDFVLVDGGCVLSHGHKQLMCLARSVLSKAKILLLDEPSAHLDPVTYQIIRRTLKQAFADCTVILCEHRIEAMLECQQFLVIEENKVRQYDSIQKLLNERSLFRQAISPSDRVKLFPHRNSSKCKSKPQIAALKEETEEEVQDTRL

Structure (SMILES)	Emax [1]	EC50 [2]	Maximum % activity (with co-corrector) [3]	EC50 [4]	EC50 [5]	EC50 [6]	Maximum % activity (with co-corrector) [7]	Emax (CSE-HRP, without co-corrector)	Maximum % activity (with co-corrector) (with co-corrector (2 μM))	Emax (without co-corrector)
COc1ccc(C2(C)CCC2)cc1CN[C@H]1[C@H](C(C)(C)C)[C@@H](C(=O)O)N(C(=O)[C@@H]2CCCO2)[C@H]1c1ccccc1C [II-578]	> 200%	1000 to 10000 nM	+++ (≥350)	< 1000 nM	–	–	–	–	–	–
COc1ccc(-c2ccccc2C)cc1CN[C@H]1[C@H](C(C)(C)C)[C@@H](C(=O)O)N(C(=O)C2CCCCC2)[C@H]1c1ccccc1 [II-279]	–	–	–	–	< 1000 nM	< 1000 nM	+++ (≥350)	> 200%	–	–
COc1cc(C(F)(F)F)ccc1CN[C@H]1[C@H](C(C)(C)C)[C@@H](C(=O)O)N(C(=O)[C@@H]2CCC[C@@H](OC)C2)[C@H]1c1ccccc1 [Example I-255]	–	–	–	–	1000 to 10000 nM	1000 to 10000 nM	+++ (≥350)	< 100%	–	–
COc1ccc(-c2ccccc2)cc1CN[C@H]1[C@H](C(C)(C)C)[C@@H](C(=O)O)N(C(=O)[C@@H]2CCC[C@@H](OC)C2)[C@H]1c1ccccc1 [Example I-78]	–	1000 to 10000 nM	–	< 1000 nM	–	–	–	–	+++ (≥350)	> 200%
COc1ccc(C(C)(C)C)cc1CN[C@H]1[C@H](C(C)(C)C)[C@@H](C(=O)O)N(C(=O)C2CCc3ccccc3O2)[C@H]1c1cccnc1N(C)C (single isomer, unassigned) [Example 43, (2S,3S,4S,5S)-3-tert-butyl-4-{[(5-tert-butyl-2-methoxyphenyl)methyl]amino}-1-[(2S*)-3,4-dihydro-2H-1-benzopyran-2-carbonyl]-5-[2-(dimethylamino)pyridin-3-yl]pyrrolidine-2-carboxylic acid]	–	1000 to 10000 nM	–	< 1000 nM	–	–	–	–	+++ (≥350)	100 to 200%
COc1ccc(C(F)(F)F)cc1CN[C@H]1[C@H](C(C)(C)C)[C@@H](C(=O)O)N(C(=O)C2CCC(C)(C)C2)[C@H]1c1ccccc1 (stereo partly drawn) [III-197]	100 to 200%	< 1000 nM	–	< 1000 nM	–	–	–	–	+++ (≥350)	–
COc1ccc(C(C)C)cc1CN[C@H]1[C@H](C(C)(C)C)[C@@H](C(=O)O)N(C(=O)C2CCCCC2)[C@H]1c1ccccc1 [II-168]	–	–	–	–	1000 to 10000 nM	< 1000 nM	+++ (≥350)	> 200%	–	–
COc1ccc(C(C)(C)C)cc1CN[C@H]1[C@H](C(C)(C)C)[C@@H](C(=O)O)N(C(=O)C2CC(C)(C)C2)[C@H]1c1ccccc1 [II-328]	> 200%	1000 to 10000 nM	+++ (≥350)	1000 to 10000 nM	–	–	–	–	–	–
COc1ccc(F)cc1CN[C@@H]1[C@@H](C(C)(C)C)[C@H](C(=O)O)N(C(=O)OC(C)C)[C@@H]1c1ccccc1 (racemic) [II-42]	–	–	–	–	1000 to 10000 nM	1000 to 10000 nM	+++ (≥350)	100 to 200%	–	–
COc1cc(C(F)(F)F)ccc1CN[C@@H]1[C@@H](C(C)(C)C)[C@H](C(=O)O)N(C(=O)C2C3COCC32)[C@@H]1c1ccccc1N(C)C (mixture of isomers) [Example I-24]	–	1000 to 10000 nM	–	1000 to 10000 nM	–	–	–	–	+++ (≥350)	> 200%
COc1ccc(C(C)(C)C)cc1CN[C@H]1[C@H](C(C)(C)C)[C@@H](C(=O)O)N(C(=O)Cc2ccccc2)[C@H]1c1ccccc1 [II-180]	–	–	–	–	1000 to 10000 nM	< 1000 nM	+++ (≥350)	> 200%	–	–
COc1ccc(C(F)(F)F)cc1CN[C@H]1[C@H](C(C)(C)OC)[C@@H](C(=O)O)N(C(=O)C2CCCCC2)[C@H]1c1cccnc1N(C)C [II-437]	> 200%	1000 to 10000 nM	+++ (≥350)	1000 to 10000 nM	–	–	–	–	–	–
CC(C)OC(=O)N1[C@H](c2ccccc2)[C@H](Nc2cc(C(F)(F)F)ccn2)[C@@H](C(C)(C)C)[C@@H]1C(=O)O (racemic) [III-38]	< 100%	1000 to 10000 nM	+++ (≥350)	1000 to 10000 nM	–	–	–	–	–	–
COc1cc(C(F)(F)F)ccc1CN[C@@H]1[C@@H](C(C)(C)C)[C@H](C(=O)O)N(C(=O)OC(C)C)[C@@H]1c1ccccc1N(C)C (racemic) [II-57]	–	–	–	–	1000 to 10000 nM	1000 to 10000 nM	+++ (≥350)	100 to 200%	–	–
Cc1cc(C(F)(F)F)cc(N[C@H]2[C@H](C(C)(C)C)[C@@H](C(=O)O)N(C(=O)C3CCCCC3)[C@H]2c2ccccn2)n1 (racemic) [II-53]	–	–	–	–	1000 to 10000 nM	1000 to 10000 nM	++ (≥150 and <350)	< 100%	–	–
Cc1cc(C(F)(F)F)cc(N[C@H]2[C@H](C(C)(C)C)[C@@H](C(=O)O)N(C(=O)C3CCCCC3C(F)(F)F)[C@H]2c2cccnc2N(C)C)n1 (stereo partly drawn) [II-502]	< 100%	1000 to 10000 nM	++ (≥150 and <350)	1000 to 10000 nM	–	–	–	–	–	–
COc1ccc(C(C)(C)C)cc1CN[C@H]1[C@H](C(C)(C)C)[C@@H](C(=O)O)N(C(=O)C2CCCCO2)[C@H]1c1cccnc1OC(F)F (single isomer, unassigned) [II-490]	–	1000 to 10000 nM	+++ (≥350)	–	–	–	–	–	–	–
COc1ccc(C(F)(F)F)cc1CN[C@H]1[C@H](C(C)(C)C)[C@@H](C(=O)O)N(C(=O)C(Oc2ccc(Cl)cc2)C(C)C)[C@H]1c1ccccc1 (stereo partly drawn) [II-399]	100 to 200%	< 1000 nM	+++ (≥350)	< 1000 nM	–	–	–	–	–	–

Now from value to compound:

Emax [1]	EC50 [2]	Maximum % activity (with co-corrector) [3]	EC50 [4]	EC50 [5]	EC50 [6]	Maximum % activity (with co-corrector) [7]	Emax (CSE-HRP, without co-corrector)	Maximum % activity (with co-corrector) (with co-corrector (2 μM))	Emax (without co-corrector)	Structure (SMILES)
< 100%	> 10000 nM	++ (≥150 and <350)	1000 to 10000 nM	–	–	–	–	–	–	COc1ccc(CN[C@@H]2[C@@H](C(C)(C)C)[C@H](C(=O)O)N(C(=O)C3CCCCC3)[C@@H]2c2ccccc2)cn1 (racemic) [III-25]
–	1000 to 10000 nM	–	1000 to 10000 nM	–	–	–	–	+++ (≥350)	> 200%	COc1ccc(C(C)(C)C)cc1CN[C@H]1[C@H](C(C)(C)C)[C@@H](C(=O)O)N(C(=O)C2CCOC2C(C)C)[C@H]1c1ccccc1 (stereo partly drawn) [Example I-218]
–	1000 to 10000 nM	–	1000 to 10000 nM	–	–	–	–	+++ (≥350)	> 200%	COc1ncc(C(F)(F)F)cc1CN[C@H]1[C@H](C(C)(C)C)[C@@H](C(=O)O)N(C(=O)[C@@H]2CCC[C@@H](OC)C2)[C@H]1c1ccccc1 [Example I-79]
–	1000 to 10000 nM	–	< 1000 nM	–	–	–	–	+++ (≥350)	> 200%	COc1ccc(C(F)(F)F)cc1CN[C@H]1[C@H](C(C)(C)C)[C@@H](C(=O)O)N(C(=O)OC(C)C)[C@H]1c1ccccc1C(C)C [Example 83, (2S,3S,4S,5S)-3-tert-butyl-4-({[2-methoxy-5-(trifluoromethyl)phenyl]methyl}amino)-1-{[(propan-2-yl)oxy]carbonyl}-5-[2-(propan-2-yl)phenyl]pyrrolidine-2-carboxylic acid]
–	1000 to 10000 nM	–	1000 to 10000 nM	–	–	–	–	+++ (≥350)	100 to 200%	COc1cc(C(F)(F)F)ccc1CN[C@H]1[C@H](C(C)(C)C)[C@@H](C(=O)O)N(C(=O)C2C3CCCC32)[C@H]1c1ccccc1 (stereo partly drawn) [Example 65, (2S,3S,4S,5S)-1-(bicyclo[3.1.0]hexane-6-carbonyl)-3-tert-butyl-4-({[2-methoxy-4-(trifluoromethyl)phenyl]methyl}amino)-5-phenylpyrrolidine-2-carboxylic acid]
> 200%	1000 to 10000 nM	–	< 1000 nM	–	–	–	–	+++ (≥350)	–	COc1ccc(C(C)c2ccccc2)cc1CN[C@H]1[C@H](C(C)(C)C)[C@@H](C(=O)O)N(C(=O)C2CCCCC2)[C@H]1c1ccccc1 (stereo partly drawn) [III-171]
100 to 200%	< 1000 nM	+++ (≥350)	< 1000 nM	–	–	–	–	–	–	COc1ccc(C(C)(C)C)cc1CN[C@H]1[C@H](C(C)(C)C)[C@@H](C(=O)O)N(C(=O)c2ccc(Oc3ccccc3)cc2)[C@H]1c1cccnc1N(C)C [II-464]
< 100%	> 10000 nM	++ (≥150 and <350)	1000 to 10000 nM	–	–	–	–	–	–	COc1cc(Cl)ccc1CN[C@@H]1[C@@H](C)[C@H](C(=O)O)N(C(=O)N(C(C)C)C(C)C)[C@@H]1c1ccccc1 (racemic) [III-39]
–	1000 to 10000 nM	–	1000 to 10000 nM	–	–	–	–	+++ (≥350)	100 to 200%	COc1ncc(C2CCC2)cc1CN[C@H]1[C@H](C23CC(C2)C3)[C@@H](C(=O)O)N(C(=O)OC(C)C)[C@H]1c1ccccc1 [Example I-236]
–	–	–	–	< 1000 nM	< 1000 nM	+++ (≥350)	100 to 200%	–	–	COc1ccc(-c2ccccc2)cc1CN[C@H]1[C@H](C(C)(C)C)[C@@H](C(=O)O)N(C(=O)C2CCCCC2)[C@H]1c1ccccc1F [II-245]
–	1000 to 10000 nM	–	1000 to 10000 nM	–	–	–	–	+++ (≥350)	< 100%	COc1cc(OC)nc(N[C@@H]2[C@@H](C(C)(C)C)[C@H](C(=O)O)N(C(=O)C3CCCCC3)[C@@H]2c2ccccc2)n1 (racemic) [Example I-1]

From patent US20180099931A1 (AbbVie S.à.r.l., priority 2016, published 2018)
